Experiments:
Male Sprague-Dawley rats = assay: tests of locomotor function (placing, grasping, righting reflex) and general behaviors; type: in vivo, rat; details: mean (SD)
Procedure: The effects of ODNs on locomotor function were examined using the following methods.^52 The animals were organized randomly into six groups: control (saline); 12.5 antisense ODN; 25 μg antisense ODN; 50 μg antisense ODN; 50 μg sense ODN; 50 μg missense ODN. The rats were pretreated with ODNs or saline in the manner described above. On the fifth day, 10 μl of saline was injected intrathecally for each rat. In some saline or antisense ODN (50 μg)-treated rats, fresh NMDA solution (1.25 μg/10 μl) was injected intrathecally. The following tests were performed with the experimenter blind to which group was treated with the agents: (1) Placing reflex: The rat was held with the hind limbs slightly lower than the forelimbs, and the dorsal surfaces of the hind paws were brought into contact with the edge of a table. The experimenter recorded whether the hind paws were placed on the table surface reflexively; (2) Grasping reflex: The rat was placed on a wire grid and the experimenter recorded whether the hind paws grasped the wire on contact; (3) Righting reflex: The rat was placed on its back on a flat surface and the experimenter noted whether it immediately assumed the normal upright position. […] In addition, the rat general behaviors including spontaneous activity were observed.

PSD-95/SAP90 = assay: immunoblot of PSD-95/SAP90 expression in spinal cord of OND-treated rats; type: in vivo, rat
Text: Antisense ONDs, widely used as research tools and even as drugs in clinical trials, inhibit protein expression by the mechanisms of (1) steric blockade of ribosomal subunit attachment to mRNA at the 5′ cap site; (2) interference with proper mRNA splicing through antisense binding to splice donor or splice acceptor sites; (3) Rnase-H-mediated degradation of hybridized mRNA.^18 To further examine whether the action of antisense OND for PSD-95/SAP90 above was specifically due to selective decrease or lack of PSD-95/SAP90 but not other proteins in the spinal cord, we detected PSD-95/SAP90, NMDA receptor subunits 2A/2B (NR2A/2B), neuronal nitric oxide synthase (nNOS) and SAP-102 in homogenates from crude lumbar enlargement segments in the normal, saline-treated (control) and OND-treated rats. […]
Animal preparation and behavioral testing. […] Nociception was evaluated by the radiant heat tail-flick test. The doses and time point of maximal effect of NMDA used in the present study were determined based on a previous study.^24 The tail-flick apparatus (Model 33B Tail Flick Analgesy Meter, IITC Life Science, Woodland Hills, Calif., USA) generated a beam of radiant heat that was focused on the underside of the tail, 5 cm from the tip. […] Nociception was assessed by the time required to induce tail-flick after applying radiant heat to the skin of the tail. […]

[1] = 50 μg, count of normal reflexes in five trials
[2] = 12.5 μg, count of normal reflexes in five trials
[3] = 25 μg, count of normal reflexes in five trials
[4] = 50 μg AS + 1.25 μg NMDA, five trials

“5′-AAGCCCTTGTTCCCATTT-3′ (DNA, backbone and methylation of C not given here; listed as Rattus rattus) [MS, missense OND control, reference compound]” was tested, and the Grasping (Male Sprague-Dawley rats; [1]) was 5 (0), the Placing (Male Sprague-Dawley rats; [1]) was 5 (0) and the Righting (Male Sprague-Dawley rats; [1]) was 5 (0). The “PSD-95/SAP90 protein in the postsynaptic density (PSD) fraction of the spinal cord” value (PSD-95/SAP90; FIGS. 1Aa and b) was “enriched”.
With “5′-TGTGATCTCCTCATACTC-3′ (DNA, backbone and methylation of C not given here; listed as Rattus rattus) [antisense oligonucletide corresponding to the PDZ domain nucleotides 241 to 258 of rat PSD-95/SAP90 mRNA]” the Grasping (Male Sprague-Dawley rats; [2]) was 5 (0), the Placing (Male Sprague-Dawley rats; [2]) was 5 (0) and the Righting (Male Sprague-Dawley rats; [2]) was 5 (0). For the same substance, the Grasping (Male Sprague-Dawley rats; [3]) was 5 (0), the Placing (Male Sprague-Dawley rats; [3]) was 5 (0) and the Righting (Male Sprague-Dawley rats; [3]) was 5 (0). The Grasping (Male Sprague-Dawley rats; [4]) was 4.83 (0.41), the Placing (Male Sprague-Dawley rats; [4]) was 4.83 (0.41) and the Righting (Male Sprague-Dawley rats; [4]) was 4.83 (0.41). For the same substance, the Grasping (Male Sprague-Dawley rats; [1]) was 4.67 (0.52), the Placing (Male Sprague-Dawley rats; [1]) was 4.83 (0.41) and the Righting (Male Sprague-Dawley rats; [1]) was 4.83 (0.41). For the same substance, the PSD-95/SAP90 expression (PSD-95/SAP90; spinal cord, after intrathecal treatment (FIG. 1Ab)) was < 15 % of control.
